Reference: PMC8119899, “A Single Mutation in the Outer Lipid-Facing Helix of a Pentameric Ligand-Gated Ion Channel Affects Channel Function Through a Radially-Propagating Mechanism” (Frontiers in Molecular Biosciences, 2021)
Residue numbers refer to the chain shown, from its start.

Assays:
Assay type in all cases: cell-based
[1] = molecular target: T1, 5-HT3A receptor K255A (Mus musculus, UniProt P23979, K282A); experiment: Two-electrode voltage clamp, 5-HT response, K255A receptor in Xenopus oocytes; details: mean and SEM, n ≥ 3
T1 sequence (P23979 24-489 K282A): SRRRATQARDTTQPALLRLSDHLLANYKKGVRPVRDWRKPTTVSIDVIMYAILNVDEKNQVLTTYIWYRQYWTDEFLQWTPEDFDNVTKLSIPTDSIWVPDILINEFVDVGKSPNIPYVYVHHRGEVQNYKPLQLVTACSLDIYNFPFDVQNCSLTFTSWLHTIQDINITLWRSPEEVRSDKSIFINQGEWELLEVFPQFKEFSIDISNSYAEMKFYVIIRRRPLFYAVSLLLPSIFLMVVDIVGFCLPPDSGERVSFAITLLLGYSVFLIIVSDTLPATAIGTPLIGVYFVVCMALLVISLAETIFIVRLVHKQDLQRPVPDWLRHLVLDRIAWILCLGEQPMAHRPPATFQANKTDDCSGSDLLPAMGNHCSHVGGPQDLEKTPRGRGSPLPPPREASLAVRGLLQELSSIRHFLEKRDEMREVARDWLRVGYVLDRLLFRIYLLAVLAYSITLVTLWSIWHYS
Method: (§1) The mouse 5-HT3A cDNA (Q6J1J7) in pcDNA3.1 (for HEK cell transfection) or pGEMHE (for RNA production) was modified by QuikChange site-directed mutagenesis (Agilent Technologies) to create point mutants (verified by sequencing).
(§2) Xenopus laevis oocytes from EcoCyte Biosciences (Austin Texas) were injected with 100 pg cRNA (generated with the ThermoFisher mMESSAGE mMACHINE T7 transcription kit) and left in injection media [88 mM NaCl, 2.4 mM NaHCO3, 1 mM KCl, 0.82 mM MgSO4 ·7H20, 5 mM Tris-HCl, 0.33 mM Ca(NO3)2·4H2O, 0.41 mM CaCl2·2H2O, 2.51 mM sodium pyruvate, 0.12 mg/ml theophylline, 0.05 mg/ml gentamicin, pH 7.5] at 16 °C for 24 h. […] The holding potential was −60 mV, using glass microelectrodes with a resistance of approximately 1 MΩ backfilled with 3M KCl.

[2] = molecular target: T2, 5-HT3A receptor D238A (Mus musculus, UniProt P23979, D265A); experiment: Two-electrode voltage clamp, 5-HT response, D238A receptor in Xenopus oocytes; parameters: key: Mutants that did not respond in the functional assay are marked as non functional (NF)
T2 sequence (P23979 24-489 D265A): T1 sequence (P23979 24-489 K282A) with D242A, A259K
Method: as §1, §2

[3] = molecular target: T3, 5-HT3A receptor F242A (Mus musculus, UniProt P23979, F269A); experiment: FlexStation membrane potential dye, 5-HT response, F242A receptor in HEK293 cells; details: mean and SEM, n ≥ 3
T3 construct: expressed in transfected cells; host or cells: HEK293
T3 sequence (P23979 24-489 F269A): T1 sequence (P23979 24-489 K282A) with F246A, A259K
Method: as §1
(§3) Human embryonic kidney (HEK) 293 cells were maintained at 37 °C at 5% CO2 in a humidified atmosphere, in Dulbecco's Modified Eagle's Medium/Nutrient Mix F12 (1:1) (Invitrogen, Paisley, UK) with GlutaMAX^TM and 10% fetal bovine serum (GE Healthcare) (DMEM/FBS) and passaged when confluent.
(§4) As described previously (Price and Lummis, [2005]) cells were incubated for 45 min with fluorescent membrane potential-sensitive dye (Membrane Potential Blue kit, Molecular Devices) diluted in Flex buffer (10 mM HEPES, 115 mM NaCl, 1 mM KCl, 1 mM CaCl2, 1 mM MgCl2, and 10 mM glucose, pH 7.4), and subsequently assayed at room temperature for 180 s, with readings every 2 s. […] (log of the concentration of ligand), a is the minimum response, b is the maximum response, and nH is the Hill slope.

[4] = molecular target: T4, 5-HT3A receptor K255Q (Mus musculus, UniProt P23979, K282Q); experiment: FlexStation membrane potential dye, 5-HT response, K255Q receptor in HEK293 cells; details: mean and SEM, n ≥ 3
T4 construct: expressed in transfected cells; host or cells: Xenopus laevis oocytes (cRNA injection)
T4 sequence (P23979 24-489 K282Q): T1 sequence (P23979 24-489 K282A) with A259Q
Method: as §1, §3, §4

**Q.** With NCCc1c[nH]c2ccc(O)cc12 [5-HT] as the compound, how does the nH [1] read?
**A.** Its nH is 1.9 ± 0.5.

**Q.** And the pEC50 [2]?
**A.** Its pEC50 is “NF”.

**Q.** What about the nH [3] of the same compound?
**A.** The nH was 3.8 ± 0.8.

**Q.** What about the nH [4] of the same compound?
**A.** Its nH is 1.9± 0.2.
